Source: paper PMC4213485, “Relevant and selective activity of Pancratium illyricum L. against Candida albicans clinical isolates: a combined effect on yeast growth and virulence” (BMC Complementary and Alternative Medicine, 2014)

Biological target: T1, Clostridium hystolyticum collagenase (EC.3.4.23.3)
T1 construct: gene colH
Assay: FALGPA hydrolysis, absorbance at […] nm
Format: biochemical, Hathewaya histolytica
Settings: FALGPA substrate (2 mM stock), 50 mM Tricine, 10 mM CaCl2, 400 mM NaCl, pH 7.5, 15 min preincubation

SMILES: O=C(O[C@@H]1Cc2c(O)cc(O)cc2O[C@@H]1c1cc(O)c(O)c(O)c1)c1cc(O)c(O)c(O)c1 [EGCG]
- IC50: 9.45 ± 0.5 µM
